Read-outs that look alike come from different tables or passages of the source.
Assays:
[1] = tested on: pERK (phospho-p44/42 ERK) in HCC827 cells; assay: Cellular pERK Inhibition Assay, Method A (In-Cell Western); format: cell-based; conditions: Homo sapiens
Protocol: Cellular pERK Inhibition Assay
pERK levels were determined using the In-Cell Western assay. HCC827 cells (ATCC, Manassas, USA) were seeded into 384-well plates at a density of 1×10^4 cells/well in RPMI1640 medium supplemented with 10% FBS and incubated 24h. Compounds were diluted first in DMSO and then into serum-free medium, before being added to cells in quadruplicate to give a final concentration of 0.2% DMSO. Plates were incubated at 37° C. for the indicated time in a humidified atmosphere of 5% CO2 in air.
Following compound treatment, cells were fixed with formalin neutral buffer solution for 20 minutes at room temperature. Plates were washed three times with 0.1% Triton-X in PBS and cells were blocked for 1 hour with Odyssey blocking buffer (LI-COR, #927-40000). After shaking out blocking buffer, cells were incubated with phospho-p44/42 ERK antibody (Cell Signalling Technology, #4370, 1:200) diluted in Odyssey blocking buffer at 4° C. overnight. Plates were washed again and cells were incubated for 1 hour with Goat anti-Rabbit […] (LI-COR, #926-32211, 1:800) diluted in Odyssey blocking buffer. After washing and removing wash solution completely using a centrifuge machine, cells were scanned on the Odyssey (LI-COR), following the manufacturer's instructions. The average signal from blank wells (no cells added) was subtracted from the signals from each sample well. Levels of pERK were then expressed as percent of control, using DMSO treated samples as control. The relative IC50 values were calculated in quadruplicate from the normalized dose-response plots using four parameter logistic curve fit. The Experiment for each compound was carried out in one time or multiple times, and the IC50 values were shown as a single value (for a compound measured in a single experiment) or an average value (for a compound measured in multiple experiments).

[2] = molecular target: SHP2 (Homo sapiens (Human), UniProt Q06124); assay: SHP2 Biochemical Assay (DiFMUP conversion, pIRS1-activated)
Protocol: SHP2 activity was monitored by measuring the conversion of the surrogate substrate 6,8-difluoromethylumbelliferyl phosphate (DiFMUP) to the fluorescent product, 6,8-difluoromethylumbelliferone (DiFMU).
SHP2 was pre-incubated with test compounds and the activating peptide pIRS1 (H2N-LN(pY)IDLDLV-(PEG)8-LST(pY)ASINFQK-amide) for 30 min, prior to addition of the 6,8-difluoromethylumbelliferyl phosphate (DiFMUP), (Thermo Fisher D6567). Final assay concentrations were 10 pM SHP2, […] pIRS1 peptide, 50 μM DiFMUP, 25 mM Bis-Tris propane, pH 7.0, 150 mM NaCl, 0.05% (v/v) Tween-20, 0.5 mM TCEP and 5% (v/v) DMSO. Rates of reaction were then measured over 30 min by monitoring fluorescence on a BMG Pherastar reader at excitation 360 nm/emission 450 nm. IC50 values were calculated in singlicate from the normalized dose-response plots using four parameter logistic curve fit. The Experiment for each compound was carried out in one time or multiple times, and the IC50 values were shown as a single value (for a compound measured in a single experiment) or an average value (for a compound measured in multiple experiments).

[3] = Table 19, head prints unit as "-M", read-out: pERK (IC50) Method A
[4] = Table 19, head prints unit as "-M"
[5] = Table 20, read-out: pERK (IC50, μM) Method A

Sequence of SHP2 (Q06124 whole entry): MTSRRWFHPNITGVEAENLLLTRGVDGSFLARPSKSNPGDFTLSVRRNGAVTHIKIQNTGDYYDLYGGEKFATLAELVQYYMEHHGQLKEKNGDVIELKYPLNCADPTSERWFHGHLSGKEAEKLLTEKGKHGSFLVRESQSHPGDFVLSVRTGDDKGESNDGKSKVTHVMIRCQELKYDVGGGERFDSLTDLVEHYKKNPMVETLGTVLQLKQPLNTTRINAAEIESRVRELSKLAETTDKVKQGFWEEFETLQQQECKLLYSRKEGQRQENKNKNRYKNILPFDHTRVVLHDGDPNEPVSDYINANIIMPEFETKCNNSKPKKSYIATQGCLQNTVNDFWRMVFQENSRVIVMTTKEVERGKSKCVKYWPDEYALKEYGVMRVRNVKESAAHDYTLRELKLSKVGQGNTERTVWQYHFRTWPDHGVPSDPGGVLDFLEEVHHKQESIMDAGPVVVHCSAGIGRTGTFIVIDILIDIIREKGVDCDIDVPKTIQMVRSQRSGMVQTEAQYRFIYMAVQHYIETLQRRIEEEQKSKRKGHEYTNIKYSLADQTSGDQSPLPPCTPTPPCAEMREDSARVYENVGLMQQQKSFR

SMILES	IC50 [1, 3] [µM]	IC50 [2, 4] [nM]	IC50 [1, 5] [µM]	IC50 ([2]; Table 20) [nM]
Cn1cc2c(Cl)c(-c3c[nH]c4nc(N5[C@@H]6CC[C@H]5[C@H](F)[C@H](N)C6)n(C)c(=O)c34)ccc2n1 (racemic) [Example 26, rac-2-((1S,2R,3R,5R)-3-amino-2-fluoro-8-azabicyclo[3.2.1]octan-8-yl)-5-(4-chloro-2-methyl-2H-indazol-5-yl)-3-methyl-3,7-dihydro-4H-pyrrolo[2,3-d]pyrimidin-4-one]	0.088	11		
CCn1cc2c(Cl)c(-c3n[nH]c4nc(N5C[C@@H]6CC[C@H]5[C@H]6N)n(C)c(=O)c34)ccc2n1 (racemic) [Example 125, rac-6-((1S,4S,7S)-7-amino-2-azabicyclo[2.2.1]heptan-2-yl)-3-(4-chloro-2-ethyl-2H-indazol-5-yl)-5-methyl-1,5-dihydro-4H-pyrazolo[3,4-d]pyrimidin-4-one]	0.26	17		
Cn1nc2ccc(-c3n[nH]c4nc(N5C[C@@H]6CC[C@H]5[C@H]6N)n(C)c(=O)c34)c(Cl)c2c1Cl (racemic) [Example 126, rac-6-((1S,4S,7S)-7-amino-2-azabicyclo[2.2.1]heptan-2-yl)-3-(3,4-dichloro-2-methyl-2H-indazol-5-yl)-5-methyl-1,5-dihydro-4H-pyrazolo[3,4-d]pyrimidin-4-one]	0.084	13		
Cn1c(N2C[C@@H]3CC[C@H]2[C@H]3N)nc2[nH]nc(-c3ccc4ncsc4c3Cl)c2c1=O (racemic) [Example 134, rac-((1S,4S,7S)-7-amino-2-azabicyclo[2.2.1]heptan-2-yl)-3-(7-chlorobenzo[d]thiazol-6-yl)-5-methyl-1,5-dihydro-4H-pyrazolo[3,4-d]pyrimidin-4-one]	0.083	4		
CN[C@H]1[C@H]2CC[C@@H]1N(c1nc3[nH]cc(-c4ccc5nn(C)cc5c4Cl)c3c(=O)n1C)C2 (racemic) [Example 135, rac-5-(4-chloro-2-methyl-2H-indazol-5-yl)-3-methyl-2-((1S,4S,7S)-7-(methylamino)-2-azabicyclo[2.2.1]heptan-2-yl)-3,7-dihydro-4H-pyrrolo[2,3-d]pyrimidin-4-one]	0.95	48		
Cn1cc2c(Cl)c(-c3c[nH]c4nc(N5[C@H]6CC[C@@H]5[C@@H](N)C6)n(C)c(=O)c34)ccc2n1 (racemic) [Example 164, 2-(rac-(1R,2S,4S)-2-amino-7-azabicyclo[2.2.1]heptan-7-yl)-5-(4-chloro-2-methyl-2H-indazol-5-yl)-3-methyl-3,7-dihydro-4H-pyrrolo[2,3-d]pyrimidin-4-one]			6.3	170
Cn1nc2ccc(-c3c[nH]c4nc(N5[C@H]6CC[C@@H]5[C@](C)(N)C6)n(C)c(=O)c34)c(Cl)c2c1Cl (racemic) [Example 173, rac-2-((1R,2R,4S)-2-amino-2-methyl-7-azabicyclo[2.2.1]heptan-7-yl)-5-(3,4-dichloro-2-methyl-2H-indazol-5-yl)-3-methyl-3,7-dihydro-4H-pyrrolo[2,3-d]pyrimidin-4-one]			0.14	2.5
Cn1nc2ccc(-c3n[nH]c4nc(N5[C@H]6CC[C@@H]5[C@](C)(N)C6)n(C)c(=O)c34)c(Cl)c2c1Cl (racemic) [Example 175, rac-6-((1R,2R,4S)-2-amino-2-methyl-7-azabicyclo[2.2.1]heptan-7-yl)-3-(3,4-dichloro-2-methyl-2H-indazol-5-yl)-5-methyl-1,5-dihydro-4H-pyrazolo[3,4-d]pyrimidin-4-one]			0.22	12
Cn1nc2ccc(-c3c[nH]c4nc(N5C[C@H]6CC[C@@H]5[C@@H]6N)n(C)c(=O)c34)c(Cl)c2c1Cl [Example 172, 2-((1R,4R,7R)-7-amino-2-azabicyclo[2.2.1]heptan-2-yl)-5-(3,4-dichloro-2-methyl-2H-indazol-5-yl)-3-methyl-3,7-dihydro-4H-pyrrolo[2,3-d]pyrimidin-4-one]			0.016	

Source: patent publication US12037345B2, “Heterobicyclic compounds for inhibiting the activity of SHP2” (TAIHO PHARMACEUTICAL CO., LTD., priority 2018, dated 2024)
